# Legend:
# [1] = system: SARS-CoV-2 SL1 RNA (SL1 wt); type: binding; conditions: for wLOGSY factor / T2 reduction [%] / CSP [Hz]: 10 μM SL1 wt, 200 μM ligand; for wLOGSY factor / T2 reduction [%]: pH 6.2; for T2 reduction [%]: CPMG 100 vs 5 ms; for Rank: FBS ranking from summed ranks of CSP, wLOGSY and T2 results; for Rank / FBS binding to SL1, in words: SL1 wt; for CSP [Hz]: ligand 1H CSP, [RNA]:[ligand] 1:20, pH 6.2; for FBS binding to SL1, in words: ligand-detected NMR
# SL1 Δbulge RNA = type: binding, SARS-CoV-2
# SL1 wt RNA = assay: NMR-based KD estimation, ligand-detected 1D-1H titration; type: binding, SARS-CoV-2; conditions: Suppl. Table 7, ligand constant at 100, SL1 wt RNA concentration 0-200; for Kd: read-out: KDest
SMILES,wLOGSY factor [1],T2 reduction [%] [1] [%],Rank [1],CSP [Hz] [1] [Hz],"FBS binding to SL1, in words [1]","FBS result (CSP, wLOGSY, T2 reduction) in words (SL1 Δbulge RNA)",Kd (SL1 wt RNA) [µM],CSP [Hz] (SL1 Δbulge RNA),Rank (SL1 Δbulge RNA),T2 reduction [%] (SL1 Δbulge RNA),wLOGSY factor (SL1 Δbulge RNA),KDest (SL1 wt RNA)
COc1ccc2nc(N(C)C(=O)CN(C)C)sc2c1 [A.34],2.15,81.54,13,19.56,slightly higher affinity,–,–,–,–,–,–,–
COc1ccc2nc(NC(=O)CN(C)C)oc2c1 [A.35],–,–,–,–,did not show any improvement,no effects,–,–,–,–,–,–
COc1ccc2nc(NC(=O)CN3CCC[C@@H](N)C3)sc2c1 [A.37],1.01,100.00,3,24.72,positive effect on SL1 binding,no effects,171,–,–,–,–,–
COc1ccc2nc(NC(=O)CN(C)C)sc2n1 [A.38],1.22,73.62,23,16.14,did not show any improvement,no effects,–,–,–,–,–,–
COc1ccc2nc(NC(=O)CN3CCN(C)CC3)[nH]c2c1 [A.40],0.68,41.23,37,9.48,reduced activity,no effects,–,–,–,–,–,–
CN(C)CC(=O)Nc1nnc(-c2cc([N+](=O)[O-])cc([N+](=O)[O-])c2)s1 [A.41],0.59,93.02,21,13.68,–,no effects,–,–,–,–,–,–
CN(C)CC(=O)Nc1nnc(-c2ccc([N+](=O)[O-])cc2)s1 [A.42],0.90,86.63,24,12.36,–,no effects,–,–,–,–,–,–
CN(C)CC(=O)Nc1nnc(-c2cc(F)c(Cl)c([N+](=O)[O-])c2Cl)s1 [A.43],0.00,91.98,31,8.40,–,no effects,–,–,–,–,–,–
COc1ccc2nc(NC(=O)CN(C)C3CC(C)(C)NC(C)(C)C3)sc2c1 [A.44],1.19,76.80,27,12.99,–,no effects,–,–,–,–,–,–
COc1ccc2nc(NC(=O)CN3CCNCC3)sc2c1 [A.45],1.54,86.71,7,24.81,positive effect on SL1 binding,–,162,7.08,7,60.81,0.00,–
CN(C)CC(=O)Nc1nc2cnc(Cl)nc2s1 [A.46],–,–,–,–,did not show any improvement,no effects,–,–,–,–,–,–
COc1ncc2nc(NC(=O)CN(C)C)sc2n1 [A.47],–,–,–,–,did not show any improvement,no effects,–,–,–,–,–,–
COc1ccc2nc(NC(=O)CN3CCC[C@H](NCCN(C)c4cccc(O)c4)C3)sc2c1 [A.48],0.00,74.30,32,17.28,–,–,304,2.16,9,0.59,10.82,–
CCN(CCN[C@H]1CCCN(CC(=O)Nc2nc3ccc(OC)cc3s2)C1)c1cccc(O)c1 [A.49],0.00,72.85,34,15.15,–,no effects,530,–,–,–,–,–
COc1ccc2nc(NC(=O)CN3CCC[C@@H](NCCN(C)c4cccc(O)c4)C3)sc2c1 [A.50],0.00,72.85,33,15.17,–,no effects,–,–,–,–,–,ambiguous
CCN(CCN[C@@H]1CCCN(CC(=O)Nc2nc3ccc(OC)cc3s2)C1)c1cccc(O)c1 [A.51],0.00,88.75,25,19.56,–,–,740,4.44,10,42.57,0.00,–
COc1ccc2nc(NC(=O)CN3CCC[C@H](NCc4cccc(O)c4)C3)sc2c1 [A.52],0.00,83.78,29,20.01,–,no effects,–,–,–,–,–,–
COc1ccc2nc(NC(=O)CN3CCC[C@@H](NCc4cccc(O)c4)C3)sc2c1 [A.53],0.00,85.86,28,21.03,–,no effects,–,–,–,–,–,–
COc1cc(OC)c2nc(NC(=O)CN3CCC[C@H](N)C3)sc2c1 [A.54],0.00,100.00,4,34.62,–,–,109,3.60,5,88.68,0.00,–
COc1cc(OC)c2nc(NC(=O)CN3CCC[C@@H](N)C3)sc2c1 [A.55],0.00,100.00,5,34.05,–,no effects,81.1,–,–,–,–,–
